Measured values reported in US6723333B1, “Moulded bodies made of thermoplastic polyurethane containing an active substance” (priority 1998, dated 2004).

Tested on: sensor bacteria (E. coli—test strain)
Experiment: Bioimaging of released active substance by effect-dependent bioluminescence of sensor bacteria
Format: cell-based
Conditions: after high temperatures of about 200° C. required for thermoplastic processing
Experimental: Microbiological evaluation and quantification of the release of active substance was performed using a new bioimaging technique. This method makes use of the selective effect-dependent bioluminescence of sensor bacteria (E. coli—test strain), in order to render visible the biological activity of the released active substance. The gyrase-inhibiting effect of ciprofloxacin was used in the system according to the invention, Texin® 5590 ciprofloxacin.
For imaging of the antibacterial effect, about 1 cm^2 sized samples of the active substance-containing material were placed in a petri dish and covered with a suspension of sensor bacteria in agarose. After an incubation period of about 30 minutes, the effect-dependent bioluminescence was assessed using a video-imaging system (e.g. EG&G Berthold, Luminograph LB 980). Antibiotic samples then appeared as luminescing areas.

O=C(O)c1cn(C2CC2)c2cc(N3CCNCC3)c(F)cc2c1=O [ciprofloxacin]
microbiological efficacy of the ciprofloxacin released from the polymer matrix: retained
